# Legend:
# Type in all cases: biochemical
# [1] = molecular target: T1, Itk (Homo sapiens, UniProt Q08881); experiment: Kinase inhibition assay (33P transfer), Itk; conditions: Table 3, class symbols; read-out: Itk-1
# T1 construct: Kinases are expressed as either kinase domains or full length constructs; made in house
# T1 sequence (Q08881 1-620): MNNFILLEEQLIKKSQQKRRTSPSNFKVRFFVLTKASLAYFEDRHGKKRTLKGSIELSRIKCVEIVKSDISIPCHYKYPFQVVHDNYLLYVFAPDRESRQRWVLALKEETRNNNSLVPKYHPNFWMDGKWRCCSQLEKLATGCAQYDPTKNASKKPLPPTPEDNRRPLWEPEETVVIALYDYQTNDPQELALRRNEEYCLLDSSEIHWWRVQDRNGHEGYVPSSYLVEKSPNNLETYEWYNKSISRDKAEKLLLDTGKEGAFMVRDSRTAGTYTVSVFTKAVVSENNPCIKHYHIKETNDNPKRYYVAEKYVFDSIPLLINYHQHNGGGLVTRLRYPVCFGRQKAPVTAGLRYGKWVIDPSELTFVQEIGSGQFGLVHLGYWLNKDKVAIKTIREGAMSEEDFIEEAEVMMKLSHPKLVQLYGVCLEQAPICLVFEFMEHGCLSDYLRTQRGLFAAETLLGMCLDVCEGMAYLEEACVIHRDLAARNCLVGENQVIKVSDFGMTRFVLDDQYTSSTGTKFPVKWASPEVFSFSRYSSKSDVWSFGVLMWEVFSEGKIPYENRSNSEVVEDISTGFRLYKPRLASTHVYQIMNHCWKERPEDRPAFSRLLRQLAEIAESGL
# Procedure, shortened: (§1)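 Read-out: scintillation counts of 33P moved from ATP onto synthetic peptide polymer coated on the well surface, after washing with 0.5% phosphoric acid. Enzymes were tagged (GST or polyHistidine) and came from bacterial or insect-cell expression. IC50 marks 50% loss of incorporated label.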
# [2] = molecular target: T2, ErbB2 (Homo sapiens, UniProt P04626); experiment: Kinase inhibition assay (33P transfer), ErbB2; conditions: read-out: ErbB2-2
# T2 construct: Kinases are expressed as either kinase domains or full length constructs; made in house
# T2 sequence (P04626 23-1255, species assumed): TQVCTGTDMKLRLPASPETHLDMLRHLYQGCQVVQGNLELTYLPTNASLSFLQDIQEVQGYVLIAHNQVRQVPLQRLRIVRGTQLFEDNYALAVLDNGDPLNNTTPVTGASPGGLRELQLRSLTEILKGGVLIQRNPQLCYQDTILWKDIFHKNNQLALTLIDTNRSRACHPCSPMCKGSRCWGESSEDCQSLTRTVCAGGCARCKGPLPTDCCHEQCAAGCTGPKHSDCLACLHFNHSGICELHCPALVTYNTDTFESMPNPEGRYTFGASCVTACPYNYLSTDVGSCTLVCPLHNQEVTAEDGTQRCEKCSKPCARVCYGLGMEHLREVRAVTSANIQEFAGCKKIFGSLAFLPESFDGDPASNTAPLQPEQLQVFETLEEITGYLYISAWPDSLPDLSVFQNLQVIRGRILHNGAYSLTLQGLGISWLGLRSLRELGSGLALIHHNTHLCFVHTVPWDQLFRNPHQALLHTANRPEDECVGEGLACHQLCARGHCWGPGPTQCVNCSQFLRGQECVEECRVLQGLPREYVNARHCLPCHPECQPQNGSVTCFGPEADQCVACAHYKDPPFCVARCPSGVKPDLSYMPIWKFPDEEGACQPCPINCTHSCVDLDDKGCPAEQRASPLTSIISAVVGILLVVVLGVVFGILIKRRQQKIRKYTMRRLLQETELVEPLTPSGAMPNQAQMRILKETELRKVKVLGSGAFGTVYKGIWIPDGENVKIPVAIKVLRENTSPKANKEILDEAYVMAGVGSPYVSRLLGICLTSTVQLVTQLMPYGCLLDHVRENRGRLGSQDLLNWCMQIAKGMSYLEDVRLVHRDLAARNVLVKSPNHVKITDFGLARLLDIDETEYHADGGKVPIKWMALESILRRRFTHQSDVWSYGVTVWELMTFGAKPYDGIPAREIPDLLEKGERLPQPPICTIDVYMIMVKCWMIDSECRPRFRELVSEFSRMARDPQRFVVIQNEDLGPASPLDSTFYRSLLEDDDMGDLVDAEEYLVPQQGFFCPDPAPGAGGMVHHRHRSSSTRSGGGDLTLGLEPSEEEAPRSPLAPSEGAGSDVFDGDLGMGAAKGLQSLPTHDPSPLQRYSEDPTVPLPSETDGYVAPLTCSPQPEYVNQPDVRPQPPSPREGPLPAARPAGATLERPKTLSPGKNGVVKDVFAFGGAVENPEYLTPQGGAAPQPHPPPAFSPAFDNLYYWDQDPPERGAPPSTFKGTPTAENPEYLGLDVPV
# Procedure, shortened: as §1
# [3] = molecular target: T3, Lck (Homo sapiens, UniProt P06239); experiment: Kinase inhibition assay (33P transfer), Lck; conditions: Table 3, class symbols; read-out: Lck-1
# T3 construct: Kinases are expressed as either kinase domains or full length constructs; made in house
# Procedure, shortened: (§2)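 Each kinase, expressed as a GST- or polyHis-tagged domain or full-length protein, phosphorylated plate-attached poly(Glu,Tyr) 4:1 or poly(Arg,Ser) 3:1 using 33P-ATP. Bound radioactivity was measured by scintillation after a 0.5% phosphoric acid wash.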
# [4] = molecular target: T4, Kdr (Homo sapiens, UniProt P35968); experiment: Kinase inhibition assay (33P transfer), Kdr; conditions: Table 3, class symbols; read-out: KDR-1
# T4 construct: Kinases are expressed as either kinase domains or full length constructs; made in house
# T4 sequence (P35968 20-1356, species assumed): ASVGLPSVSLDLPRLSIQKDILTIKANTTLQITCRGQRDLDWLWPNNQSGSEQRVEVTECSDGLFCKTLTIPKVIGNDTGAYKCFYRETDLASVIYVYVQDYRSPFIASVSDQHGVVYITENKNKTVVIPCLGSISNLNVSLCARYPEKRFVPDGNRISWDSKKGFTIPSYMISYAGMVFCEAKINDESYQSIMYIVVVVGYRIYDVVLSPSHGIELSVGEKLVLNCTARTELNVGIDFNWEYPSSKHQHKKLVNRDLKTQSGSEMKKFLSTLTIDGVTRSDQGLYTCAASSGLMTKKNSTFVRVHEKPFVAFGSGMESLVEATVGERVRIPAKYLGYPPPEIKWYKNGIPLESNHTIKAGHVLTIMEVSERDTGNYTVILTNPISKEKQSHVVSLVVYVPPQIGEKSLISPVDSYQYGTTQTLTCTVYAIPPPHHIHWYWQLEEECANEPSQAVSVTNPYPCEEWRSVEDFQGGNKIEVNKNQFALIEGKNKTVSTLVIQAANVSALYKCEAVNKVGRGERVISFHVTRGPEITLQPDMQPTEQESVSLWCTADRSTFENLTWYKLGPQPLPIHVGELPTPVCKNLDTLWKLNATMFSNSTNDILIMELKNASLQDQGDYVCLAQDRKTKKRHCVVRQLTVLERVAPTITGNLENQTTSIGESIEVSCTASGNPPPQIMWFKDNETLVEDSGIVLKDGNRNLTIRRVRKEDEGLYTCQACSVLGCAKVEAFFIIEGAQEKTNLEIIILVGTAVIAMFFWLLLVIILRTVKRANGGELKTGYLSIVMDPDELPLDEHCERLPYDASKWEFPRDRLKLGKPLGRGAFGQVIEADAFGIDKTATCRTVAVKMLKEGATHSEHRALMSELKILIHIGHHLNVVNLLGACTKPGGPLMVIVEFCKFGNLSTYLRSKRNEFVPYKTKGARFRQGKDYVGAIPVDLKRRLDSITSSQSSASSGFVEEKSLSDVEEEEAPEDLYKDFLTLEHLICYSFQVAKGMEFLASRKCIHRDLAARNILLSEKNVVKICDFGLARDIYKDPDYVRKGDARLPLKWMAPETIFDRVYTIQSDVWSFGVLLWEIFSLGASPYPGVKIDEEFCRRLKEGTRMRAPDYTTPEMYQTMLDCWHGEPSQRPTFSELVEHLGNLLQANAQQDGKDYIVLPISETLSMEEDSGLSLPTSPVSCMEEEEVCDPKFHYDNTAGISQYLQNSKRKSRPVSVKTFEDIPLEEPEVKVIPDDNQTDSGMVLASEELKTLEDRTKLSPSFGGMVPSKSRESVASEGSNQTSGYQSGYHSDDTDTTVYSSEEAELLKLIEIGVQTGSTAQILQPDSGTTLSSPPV
# Procedure, shortened: as §2
# [5] = molecular target: T5, IGFR-1 (Homo sapiens, UniProt P08069); experiment: Kinase inhibition assay (33P transfer), IGFR-1; conditions: Table 2, class symbols A-E
# T5 construct: Kinases are expressed as either kinase domains or full length constructs; made in house
# [6] = molecular target: T6, EGFR (Homo sapiens, UniProt P00533); experiment: Kinase inhibition assay (33P transfer), EGFR; conditions: Table 2, class symbols A-E; read-out: EGFR-1
# T6 construct: Kinases are expressed as either kinase domains or full length constructs; made in house
# T6 sequence (P00533 25-1210, species assumed): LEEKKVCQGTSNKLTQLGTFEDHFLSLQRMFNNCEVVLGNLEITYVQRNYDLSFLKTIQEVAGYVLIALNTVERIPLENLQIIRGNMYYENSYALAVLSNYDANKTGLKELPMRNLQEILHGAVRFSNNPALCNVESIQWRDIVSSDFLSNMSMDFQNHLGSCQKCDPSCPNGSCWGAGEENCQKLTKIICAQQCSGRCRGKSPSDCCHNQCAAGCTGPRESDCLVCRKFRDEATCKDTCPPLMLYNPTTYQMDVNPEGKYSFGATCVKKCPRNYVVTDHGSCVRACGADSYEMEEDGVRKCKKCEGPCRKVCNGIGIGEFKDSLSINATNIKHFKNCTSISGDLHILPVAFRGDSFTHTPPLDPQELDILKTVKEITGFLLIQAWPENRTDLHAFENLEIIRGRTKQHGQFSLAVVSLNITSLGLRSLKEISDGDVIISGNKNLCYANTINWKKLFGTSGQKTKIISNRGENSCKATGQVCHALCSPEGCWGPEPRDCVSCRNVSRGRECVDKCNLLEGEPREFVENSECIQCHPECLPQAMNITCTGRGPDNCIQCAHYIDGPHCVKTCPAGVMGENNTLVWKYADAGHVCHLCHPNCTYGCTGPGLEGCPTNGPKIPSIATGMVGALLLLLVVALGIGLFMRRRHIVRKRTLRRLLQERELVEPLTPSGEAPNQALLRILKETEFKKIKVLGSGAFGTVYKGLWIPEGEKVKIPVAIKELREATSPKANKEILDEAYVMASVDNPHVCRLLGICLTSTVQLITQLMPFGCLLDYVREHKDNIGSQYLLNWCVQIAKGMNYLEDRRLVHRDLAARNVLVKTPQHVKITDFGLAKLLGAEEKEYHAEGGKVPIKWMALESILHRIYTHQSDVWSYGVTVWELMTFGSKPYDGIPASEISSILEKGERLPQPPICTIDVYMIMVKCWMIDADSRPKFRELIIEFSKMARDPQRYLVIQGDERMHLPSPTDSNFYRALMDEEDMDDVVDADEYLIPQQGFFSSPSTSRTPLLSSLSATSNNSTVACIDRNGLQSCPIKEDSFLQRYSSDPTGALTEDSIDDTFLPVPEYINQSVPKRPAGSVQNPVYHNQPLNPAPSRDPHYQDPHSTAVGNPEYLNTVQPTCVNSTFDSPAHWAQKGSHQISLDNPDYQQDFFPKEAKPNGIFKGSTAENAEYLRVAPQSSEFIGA
# Procedure, shortened: as §1
# [7] = molecular target: T7, c-Met (Homo sapiens, UniProt P08581); experiment: Kinase inhibition assay (33P transfer), c-Met; conditions: Table 2, class symbols A-E; read-out: Met-1
# T7 construct: Kinases are expressed as either kinase domains or full length constructs; made in house
# T7 sequence (P08581 25-1390): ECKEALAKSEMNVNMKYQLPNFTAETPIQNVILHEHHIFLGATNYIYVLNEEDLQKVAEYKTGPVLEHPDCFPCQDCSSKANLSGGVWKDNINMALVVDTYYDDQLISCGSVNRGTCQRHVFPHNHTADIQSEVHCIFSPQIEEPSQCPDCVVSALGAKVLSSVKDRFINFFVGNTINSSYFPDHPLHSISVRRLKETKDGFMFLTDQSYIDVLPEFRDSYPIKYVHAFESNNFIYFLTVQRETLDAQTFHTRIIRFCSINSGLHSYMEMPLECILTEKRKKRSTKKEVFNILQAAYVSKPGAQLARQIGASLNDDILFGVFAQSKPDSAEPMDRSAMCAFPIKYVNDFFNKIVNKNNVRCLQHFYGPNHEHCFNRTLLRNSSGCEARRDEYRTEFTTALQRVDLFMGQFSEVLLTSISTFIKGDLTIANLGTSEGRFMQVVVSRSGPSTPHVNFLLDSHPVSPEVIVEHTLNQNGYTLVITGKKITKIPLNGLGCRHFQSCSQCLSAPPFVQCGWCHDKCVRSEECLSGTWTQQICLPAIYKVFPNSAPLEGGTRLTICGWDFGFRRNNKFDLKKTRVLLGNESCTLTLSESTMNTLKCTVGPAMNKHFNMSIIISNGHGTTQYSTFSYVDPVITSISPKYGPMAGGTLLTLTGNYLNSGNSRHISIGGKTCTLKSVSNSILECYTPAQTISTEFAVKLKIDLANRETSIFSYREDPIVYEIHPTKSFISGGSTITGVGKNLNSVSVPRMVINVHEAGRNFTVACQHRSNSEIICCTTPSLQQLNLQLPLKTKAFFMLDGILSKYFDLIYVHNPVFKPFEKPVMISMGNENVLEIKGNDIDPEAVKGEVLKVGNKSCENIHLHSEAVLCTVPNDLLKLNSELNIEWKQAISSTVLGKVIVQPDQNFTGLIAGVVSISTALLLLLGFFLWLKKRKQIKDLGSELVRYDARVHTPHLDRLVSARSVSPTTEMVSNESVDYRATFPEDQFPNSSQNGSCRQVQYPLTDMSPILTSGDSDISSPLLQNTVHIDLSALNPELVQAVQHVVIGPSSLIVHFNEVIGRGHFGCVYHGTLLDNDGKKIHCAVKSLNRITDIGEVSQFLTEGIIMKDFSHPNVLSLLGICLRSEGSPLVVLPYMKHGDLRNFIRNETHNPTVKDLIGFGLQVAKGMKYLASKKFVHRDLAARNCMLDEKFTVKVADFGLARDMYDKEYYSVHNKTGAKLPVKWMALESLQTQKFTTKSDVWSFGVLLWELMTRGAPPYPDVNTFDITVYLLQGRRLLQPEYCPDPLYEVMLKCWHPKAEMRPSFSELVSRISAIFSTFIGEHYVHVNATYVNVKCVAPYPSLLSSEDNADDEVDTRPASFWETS
# Procedure, shortened: as §1
# [8] = molecular target: T8, Zap-70 (Homo sapiens, UniProt P43403); experiment: Kinase inhibition assay (33P transfer), Zap-70; conditions: Table 3, class symbols; read-out: Zap-1
# T8 construct: Kinases are expressed as either kinase domains or full length constructs; made in house
# T8 sequence (P43403 1-619): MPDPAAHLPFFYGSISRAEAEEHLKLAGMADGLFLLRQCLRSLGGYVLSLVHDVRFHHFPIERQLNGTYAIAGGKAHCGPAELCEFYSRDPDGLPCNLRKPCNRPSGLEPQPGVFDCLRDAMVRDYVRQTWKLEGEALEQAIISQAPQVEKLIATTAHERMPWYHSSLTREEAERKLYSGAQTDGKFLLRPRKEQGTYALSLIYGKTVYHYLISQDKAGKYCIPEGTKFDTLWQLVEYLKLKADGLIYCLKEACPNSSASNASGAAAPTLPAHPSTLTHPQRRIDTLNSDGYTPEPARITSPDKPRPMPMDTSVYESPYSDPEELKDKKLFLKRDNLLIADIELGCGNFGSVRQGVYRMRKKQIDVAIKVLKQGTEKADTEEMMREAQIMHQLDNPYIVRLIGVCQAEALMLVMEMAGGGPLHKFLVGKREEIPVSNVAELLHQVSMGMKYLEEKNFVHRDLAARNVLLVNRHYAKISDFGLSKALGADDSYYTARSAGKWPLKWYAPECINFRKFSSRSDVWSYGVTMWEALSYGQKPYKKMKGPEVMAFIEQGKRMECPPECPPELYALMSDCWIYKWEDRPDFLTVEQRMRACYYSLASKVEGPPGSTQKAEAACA
# Procedure, shortened: as §2
# [9] = molecular target: T9, AKT (Homo sapiens, UniProt Q9Y243); experiment: Kinase inhibition assay (33P transfer), AKT; conditions: Table 2, class symbols A-E; read-out: AKT3-1
# T9 construct: Kinases are expressed as either kinase domains or full length constructs; made in house
# Procedure, shortened: as §2
# [10] = molecular target: T10, PDGFRB (Homo sapiens, UniProt P09619); experiment: Kinase inhibition assay (33P transfer), PDGFRB; conditions: read-out: PDGFRB-1
# T10 construct: Kinases are expressed as either kinase domains or full length constructs; made in house
Compound,IC50 [1] [µM],IC50 [2] [µM],IC50 [3] [µM],IC50 [4] [µM],IC50 [5] [µM],IC50 [6] [µM],IC50 [7] [µM],IC50 [8] [µM],IC50 [9] [µM],IC50 [10] [µM]
Fc1cccc(CNc2nc3ccccc3n2-c2ncnc(Nc3cccc(Cn4ccnn4)c3)n2)c1 [Compound 964],7.11 to 9.14,4.87 to 7.11,4.87 to 7.11,< 0.812,> 9.14,0.812 to 4.87,> 9.14,> 9.14,> 9.14,< 0.812
Cc1ccc2c(c1)CCCN2c1ncnc(Nc2ccc(F)c(F)c2)n1 [Compound 893],> 12.7,> 12.7,> 12.7,> 12.7,> 12.7,1.13 to 6.79,1.13 to 6.79,> 12.7,1.13 to 6.79,1.13 to 6.79
c1ccc(Cn2ncc3cc(Nc4ncnc(Nc5ccc6ncsc6c5)n4)ccc32)cc1 [Compound 900],0.888 to 5.33,< 0.888,0.888 to 5.33,< 0.888,0.888 to 5.33,< 0.888,< 0.888,5.33 to 7.77,< 0.888,0.888 to 5.33
COc1cccc(CCNc2ncnc(Nc3ccc4c(cnn4Cc4ccccc4)c3)n2)c1OC [Compound 873],> 9.34,> 9.34,> 9.34,> 9.34,> 9.34,> 9.34,> 9.34,> 9.34,> 9.34,> 9.34
CCOC(=O)c1cccc(Nc2ncnc(Nc3cc(-c4ccc(C(=O)OC)cc4)n[nH]3)n2)c1 [Compound 813],0.871 to 5.22,> 9.79,> 9.79,> 9.79,> 9.79,> 9.79,> 9.79,> 9.79,> 9.79,0.871 to 5.22
Cc1ccc(Cl)cc1Nc1ncnc(Nc2cc(Cl)ccc2C)n1 [Compound 638],> 12.5,9.72 to 12.5,> 12.5,9.72 to 12.5,9.72 to 12.5,< 1.11,> 12.5,> 12.5,> 12.5,1.11 to 6.66
COc1ccc(Nc2ncnc(N(C)C3CCN(Cc4ccccc4)C3)n2)cc1OC (centres unmarked) [Compound 802],> 10.7,> 10.7,> 10.7,> 10.7,> 10.7,> 10.7,> 10.7,> 10.7,> 10.7,0.951 to 5.71
c1cc(Cn2ccnn2)cc(Nc2ncnc(-n3c(Nc4ccc5[nH]ccc5c4)nc4ccccc43)n2)c1 [Compound 963],4.8 to 7.01,0.801 to 4.8,0.801 to 4.8,< 0.801,4.8 to 7.01,4.8 to 7.01,0.801 to 4.8,7.01 to 9.01,7.01 to 9.01,< 0.801
COc1ccc(Nc2ncnc(N(C)c3ccc(S(=O)(=O)O)cc3)n2)cc1OC [Compound 798],> 10.8,> 10.8,> 10.8,0.958 to 5.75,> 10.8,> 10.8,8.38 to 10.8,> 10.8,> 10.8,0.958 to 5.75
COc1cc(CNc2ncnc(Nc3cc(-c4ccco4)n[nH]3)n2)cc(OC)c1OC [Compound 997],> 10.6,> 10.6,> 10.6,> 10.6,> 10.6,> 10.6,> 10.6,> 10.6,> 10.6,> 10.6
COc1cc(Nc2ncnc(-c3cccnc3Nc3cc(Cl)cc(Cl)c3)n2)cc(OC)c1OC [Compound 837],> 9.01,> 9.01,> 9.01,> 9.01,> 9.01,> 9.01,> 9.01,> 9.01,> 9.01,> 9.01
COc1ccc(Nc2ncnc(N(C)CC(O)c3ccccc3)n2)cc1OC (centres unmarked) [Compound 868],1.05 to 6.29,> 11.8,> 11.8,> 11.8,> 11.8,1.05 to 6.29,> 11.8,> 11.8,> 11.8,1.05 to 6.29
c1ccc(Nc2ncccc2-c2ncnc(Nc3cccc(Cn4ccnn4)c3)n2)cc1 [Compound 1095],> 10.7,> 10.7,> 10.7,< 0.949,> 10.7,> 10.7,> 10.7,> 10.7,> 10.7,< 0.949
Cc1ccc(-c2cc(Nc3ncnc(Nc4cc(C)ccc4C)n3)[nH]n2)cc1 [Compound 1125],< 1.08,1.08 to 6.46,< 1.08,1.08 to 6.46,< 1.08,< 1.08,1.08 to 6.46,> 12.1,> 12.1,1.08 to 6.46
COc1ccc(Nc2ncnc(Nc3ccc(F)c(F)c3)n2)cc1OC [Compound 794],9.74 to 12.5,1.11 to 6.68,1.11 to 6.68,6.68 to 9.74,6.68 to 9.74,1.11 to 6.68,9.74 to 12.5,9.74 to 12.5,> 12.5,1.11 to 6.68
Brc1cccc(Nc2ncnc(Nc3cccc(Cn4ccnn4)c3)n2)c1 [Compound 961],5.67 to 8.27,< 0.945,5.67 to 8.27,0.945 to 5.67,0.945 to 5.67,< 0.945,> 10.6,> 10.6,> 10.6,8.27 to 10.6
COc1ccc(CCNc2ncnc(Nc3cc(-c4ccco4)[nH]n3)n2)cc1OC [Compound 823],0.982 to 5.89,5.89 to 8.59,8.59 to 11,0.982 to 5.89,5.89 to 8.59,> 11,0.982 to 5.89,8.59 to 11,0.982 to 5.89,0.982 to 5.89
O=C(O)CCNC(=O)c1ccc(Nc2ncnc(Nc3cc(-c4ccco4)[nH]n3)n2)cc1 [Compound 885],0.921 to 5.52,0.921 to 5.52,> 10.4,< 0.921,0.921 to 5.52,0.921 to 5.52,0.921 to 5.52,5.52 to 8.06,8.06 to 10.4,0.921 to 5.52
COC(=O)c1ccc(-c2cc(Nc3ncnc(NCCNC(C)=O)n3)[nH]n2)cc1 [Compound 819],> 11.4,> 11.4,> 11.4,> 11.4,> 11.4,> 11.4,> 11.4,> 11.4,> 11.4,1.01 to 6.05
COc1ccc(Nc2ncnc(N(C)C3CCCCC3)n2)cc1OC [Compound 796],6.99 to 10.2,6.99 to 10.2,< 1.16,10.2 to 13.1,> 13.1,< 1.16,1.16 to 6.99,> 13.1,> 13.1,1.16 to 6.99

# — patent US7074789B2, “Kinase inhibitors” (Amgen Inc., priority 1999, dated 2006)
